# Reference: patent US8288372B2, “Method for treating headache with loxapine” (Alexza Pharmaceuticals, Inc., priority 2002, dated 2012)
# Where two headings read alike, the source gives them in different places. Marks after values point to notes of the source that are not given here.
# How the values were obtained:
# Male mice = assay: Mouse writhing test (acetic acid 0.5% i.p.); settings: for Effect on the number of writhes induced by acetic acid: five doses i.p.; for Dose from which the number of writhes was significantly decreased: Mann Whitney U test vs vehicle
# Method: Male mice weighing 23-28 g were used in this test. Mice were injected with acetic acid (0.5% i.p.). This treatment induces a recognizable writhing response in control animals. The number of writhes is counted for 10 minutes beginning 5 minutes after injection of acetic acid. Ten mice were studied per group. The test was performed blind. Loxapine and amoxapine (dispersed in 0.2% hydroxypropylmethylcellulose, then dissolved in saline) were evaluated at five doses, administered i.p. 30 minutes before acetic acid, and compared with a vehicle control (0.2% hydroxypropylmethylcellulose in saline) group. Dosage rates for loxapine were 0.125, 0.25, 0.5, 1 and 2 mg/kg. Dosage rates for amoxapine were 1, 2, 4, 8 and 16 mg/kg. […] The data were analyzed by comparing the treated groups with the vehicle control using Mann Whitney U tests.
# [1] = Toxicokinetic analysis of loxapine plasma concentration after aerosol inhalation; assay type: in vivo, beagle dogs
# Method: On the first day of the repeat dose (5 day) portion of the study, plasma samples were collected for toxicokinetic analysis prior to dosing, 2 minutes after the onset of dosing, immediately after dosing, 20 minutes and 1, 3, 9 and 24 hours post dosing. Samples were stored at −80° C. until loxapine plasma concentration analysis. Loxapine plasma concentration can be measured using analytical methods well known in the art, such as LC/MS, LC/MS/MS, and/or GC/MS. […] The rate of rise in loxapine plasma concentration is found to average at least 70 ng/mL/minute at the 2 mg/kg dose level over the first 2 minutes of dosing, and 20 ng/mL/minute at the 2 mg/kg dose level over the first 10 minutes of dosing. The rate of rise in loxapine plasma concentration is found to average at least 7 ng/mL/minute at the 0.2 mg/kg dose level over the first 2 minutes of dosing, and 2 ng/mL/minute at the 0.2 mg/kg dose level over the first 10 minutes of dosing. Therapeutic plasma levels of approximately at least 0.5 ng/mL, 1 ng/mL, 2 ng/mL, 4 ng/mL, 8 ng/mL, or even 15 ng/mL are obtained within 10 minutes, 5 minutes, and even within 2 minutes at both dose levels.
# [2] = system: subjects with a history of moderate to severe migraine headache; assay: Phase II clinical trial of loxapine for the treatment of acute migraine attacks; assay type: in vivo, human
# Description: The study methodology is a double-blind, randomized, placebo-controlled dose-ranging trial. Healthy male and female subjects 18 to 65 years of age, inclusive, with a history of moderate to severe migraine headache by self-report (migraine with or without aura) with average frequency of 1-6 attacks per month during the past 3 months are recruited to participate in the study. Those subjects meeting entry criteria are enrolled and randomized to receive one of the following treatments: placebo, loxapine rapid delivery system ˜1.25 mg, loxapine rapid delivery system ˜2.5 mg, loxapine rapid delivery system ˜5 mg, loxapine rapid delivery system ˜10 mg. Higher loxapine doses may also be tested if found safe in a Phase I clinical trial. The loxapine rapid delivery system is a means of delivering loxapine to a migraine patient such that maximum plasma drug concentrations are obtained within 1 hour, 30 minutes, 15 minutes, 10 minutes, 5 minutes, or even 2 minutes or less. The condensation aerosol delivery system described above with respect to a Phase I clinical trial is one such system. Other rapid delivery systems include various durations of intravenous infusions or injections.
# Immediately prior to receiving the treatment to which the patient has been randomized, the patient rates their severity of headache and nausea on a 4-point scale (0—absent, 1—mild, 2—moderate, 3—severe) and photophobic and phonophobia on a 2-point scale (Does light make your headache worse? 0—No, 1—Yes; Does noise make your headache worse? O—No, 1—Yes). Alternatively, an 11-point visual-analogue scale (0—none to 10—maximally severe) or other appropriate scale can be used. Subjects are asked to repeat these ratings at timepoints of 15 and 30 minutes following treatment, and also at 1, 2, 4, 8, 12 and 24 hours post treatment. Subjects are further asked for their global assessment of treatment efficacy (1—very poor to 5—very good) at 120 minutes and 24 hours post treatment. Concomitant medications, if any, are also recorded.
# [3] = system: person with migraine headache; assay: Clinical use of loxapine tablet for an acute migraine attack; assay type: in vivo, human; settings: 25 mg tablet by mouth
# Method: A person in generally good health notes onset of moderate pain localizing to the right side of their head over approximately 10 minutes while at home. Over the next 10 minutes, the pain becomes more severe, characterized by throbbing. The person recognizes this as a migraine headache, and also knows that for their such headaches, when untreated, tend to persist for at least a full day with nausea accompanying the headache pain and with the pain so severe as to render sleeping difficult or impossible. The person turns down the lights in their living room to avoid the pain caused by bright light entering their eyes, and turns off the radio, because noise from the radio was worsening their headache pain. They take a 25 mg loxapine tablet by mouth with a glass of water. Over the next 15 minutes, the headache pain begins to […], and the person's stomach is mildly upset. […] Their stomach no longer bothers them. […] Light and sound are no longer bothersome. They eat a normal meal without stomach upset.
# Beagle Dog = settings: in vivo
# [4] = cited from earlier work
# animal model = settings: chronic administration of amoxapine alone; cited from earlier work
# [5] = 1 mg/kg i.p. 30 minutes before acetic acid, first or second experiment
# [6] = 2 mg/kg i.p. 30 minutes before acetic acid, first or second experiment
smiles,measurement,setting,value
"CN1CCN(C2=Nc3ccccc3Oc3ccc(Cl)cc32)CC1 [Loxapine, 2-chloro-11(4-methyl-1-piperazinyl)dibenz(b,f) (1,4) oxazepine]","Reduction in acetic acid writhing, percentage of control vehicle pretreatment",Male mice; 0.125 mg/kg i.p. 30 minutes before acetic acid,−57% **
same,"Reduction in acetic acid writhing, percentage of control vehicle pretreatment",Male mice; 0.25 mg/kg i.p. 30 minutes before acetic acid,−90% ***
same,"Reduction in acetic acid writhing, percentage of control vehicle pretreatment",Male mice; [5],−100% ***
same,"Reduction in acetic acid writhing, percentage of control vehicle pretreatment",Male mice; [6],−99% ***
same,Effect on the number of writhes induced by acetic acid,Male mice,dose-dependently decreased the number of writhes
same,Dose from which a clear / marked effect on writhing was observed,Male mice; i.p.,≥ 0.25 mg/kg
same,Dose from which the number of writhes was significantly decreased,Male mice; i.p.,≥ 0.125 mg/kg
same,Dose from which sedation was observed,"Male mice; i.p., mice",≥ 0.25 mg/kg
same,Average rate of rise in loxapine plasma concentration,"[1]; 0.2 mg/kg, first 2 minutes of dosing",at least 7 ng/mL/minute
same,Average rate of rise in loxapine plasma concentration,"[1]; 0.2 mg/kg, first 10 minutes of dosing",≥ 2 ng/mL/min
same,Average rate of rise in loxapine plasma concentration,"[1]; 2 mg/kg, first 2 minutes of dosing",at least 70 ng/mL/minute
same,Average rate of rise in loxapine plasma concentration,"[1]; 2 mg/kg, first 10 minutes of dosing",≥ 20 ng/mL/min
same,Time to peak plasma concentration after end of drug inhalation,"[1]; aerosol inhalation, first day of repeat dose",≤ 2 min
same,Therapeutic effect of the drug,"[2]; 5 mg and 10 mg, rapid delivery system, within 1 hour",strong therapeutic effect
same,Severity of headache in treated patients,"[2]; 5 mg and 10 mg, at 1 hour, even 30 minutes, sometimes 15 minutes",markedly lower than prior to treatment
same,Headache relief versus placebo,"[2]; 5 mg or 10 mg, at 1 hour, statistically significant at p<0.05 assuming large sample",marked advantage
same,Persistence of advantage versus placebo,"[2]; 5 mg or 10 mg, unless placebo patients get rescue medication","persists at 2 hours, 4 hours, 8 hours, and even 24 hours"
same,Signs of headache after brief nap,[3],without any signs of headache
same,Return of headache,[3]; no further medication,does not return over the next 72 hours
same,Headache pain,[3]; over the 1 hour following the first 15 minutes,diminishes slowly
same,Food consumption,Beagle Dog,roughly normal
same,Gross pathology findings at necropsy,Beagle Dog,No treatment related findings
same,Histopathological examination of gross lesions,Beagle Dog,no treatment related findings
same,"Histopathological examination of larynx, trachea, mainstem bronchi, lungs including bronchi",Beagle Dog,No treatment related abnormalities
same,"Signs of bronchoconstriction (wheezing, prolonged expiratory phase, cough)",Beagle Dog,no signs of bronchoconstriction
same,Cmax for loxapine only,"[4]; oral dose of 25 mg, a different study",10 to 12 ng/mL
same,Tmax after oral administration,"[4]; oral, manufacturer studies (Lederle Laboratories)",2 to 3 h
"Clc1ccc2c(c1)C(N1CCNCC1)=Nc1ccccc1O2 [Amoxapine, 2-chloro-11(1-piperazinyl)dibenz(b,f) (1,4) oxazepine]","Reduction in acetic acid writhing, percentage of control vehicle pretreatment",Male mice; [5],−23% NS
same,"Reduction in acetic acid writhing, percentage of control vehicle pretreatment",Male mice; [6],−39% *
same,"Reduction in acetic acid writhing, percentage of control vehicle pretreatment","Male mice; 4 mg/kg i.p. 30 minutes before acetic acid, first or second experiment",−71% ***
same,"Reduction in acetic acid writhing, percentage of control vehicle pretreatment","Male mice; 8 mg/kg i.p. 30 minutes before acetic acid, first or second experiment",−93% ***
same,"Reduction in acetic acid writhing, percentage of control vehicle pretreatment",Male mice; 16 mg/kg i.p. 30 minutes before acetic acid,−100% ***
same,Effect on the number of writhes induced by acetic acid,Male mice,dose-dependently decreased the number of writhes
same,Dose from which a clear / marked effect on writhing was observed,Male mice; i.p.,≥ 4 mg/kg
same,Dose from which the number of writhes was significantly decreased,Male mice; i.p.,≥ 2 mg/kg
same,Dose from which sedation was observed,"Male mice; male, mouse, in vivo, ip",≥ 2 mg/kg
same,Cmax,[4]; lowest used oral dose 50 mg (Jue et al. 1982),~30 ng/mL
same,Cmax,[4]; oral 100 mg (Calvo et al. 1985),~50 ng/mL
same,Tmax after oral administration,[4]; oral 100 mg,~1.5 h
same,Blood levels after repeated dosing,[4]; repeated amoxapine dosing (Calvo et al. 1985),30 to 300 ng/mL
same,Latency of the tail-flick,animal model,no change
